{"source": "patent US20240327463A1", "about": "“ANTIBACTERIAL PRODUCTS” (priority 2017, published 2024)", "key": {"VRE 1002": {"test_system": "VRE 1002", "type": "cell-based, Enterococcus faecalis", "outline": "(§1)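 Strains grow in Mueller Hinton broth at 37 °C; test compound is diluted stepwise in Mueller Hinton to well 11, and the whole procedure is carried out in triplicate.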"}, "VRE 1001": {"test_system": "VRE 1001", "type": "cell-based, Enterococcus faecalis", "outline": "as §1"}, "VRE 1004": {"test_system": "VRE 1004", "type": "cell-based, Enterococcus faecalis", "outline": "as §1"}, "VRE 1008": {"test_system": "VRE 1008", "type": "cell-based, Enterococcus faecalis", "outline": "as §1"}, "MRSA 1003": {"test_system": "MRSA 1003", "type": "cell-based, Staphylococcus aureus", "outline": "as §1"}, "[1]": {"test_system": "Bacillus Subtilis ATCC 6633", "type": "cell-based", "outline": "as §1"}, "[2]": {"test_system": "Staphylococcus saprophyticus ATCC 49453", "type": "cell-based", "conditions": "ATCC 49453", "outline": "as §1"}, "[3]": {"test_system": "Bacillus Cereus ATCC 11788", "type": "cell-based", "outline": "as §1"}, "[4]": {"test_system": "Staphylococcus saprophyticus ATCC BAA 750", "type": "cell-based", "conditions": "ATCC BAA 750", "outline": "as §1"}, "SE12228": {"test_system": "SE12228", "type": "cell-based", "outline": "as §1"}, "[5]": {"test_system": "Staphylococcus saprophyticus ATCC 15305", "type": "cell-based", "conditions": "ATCC 15305", "outline": "as §1"}, "[6]": {"test_system": "Staphylococcus saprophyticus ATCC 49907", "type": "cell-based", "conditions": "ATCC 49907", "outline": "as §1"}, "SA4299": {"test_system": "SA4299", "type": "cell-based", "conditions": "Table 11", "outline": "as §1"}, "Enterococcus": {"test_system": "Enterococcus", "outline": "(§2)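 Twofold broth microdilution in Mueller Hinton from a 512 μg/ml starting well, peptides dissolved in DMSO. Plates incubated 24 hours at 37° C, in triplicate. MIC read as lowest concentration without visible growth.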"}, "MRSA ATCC 33591": {"test_system": "MRSA ATCC 33591", "conditions": "MRSA ATCC 33591", "outline": "as §2"}, "MRSA DR 42412 (sputum)": {"test_system": "MRSA DR 42412 (sputum)", "assay": "microbe, parasite or virus in culture", "outline": "as §2"}, "MRSA DM21455 (eye)": {"test_system": "MRSA DM21455 (eye)", "assay": "microbe, parasite or virus in culture", "outline": "as §2"}, "MRSA ATCC 700699": {"test_system": "MRSA ATCC 700699", "assay": "microbe, parasite or virus in culture", "outline": "as §2"}, "[7]": {"test_system": "Staphylococcus aureus ATCC 29213", "assay": "microbe, parasite or virus in culture", "outline": "as §2"}, "VRE ATCC 29212": {"test_system": "VRE ATCC 29212", "assay": "microbe, parasite or virus in culture", "conditions": "ATCC 29212", "outline": "as §2"}, "VRE ATCC 700802": {"test_system": "VRE ATCC 700802", "assay": "microbe, parasite or virus in culture", "outline": "as §2"}, "M. smegmatis ATCC 607": {"test_system": "M. smegmatis ATCC 607", "assay": "microbe, parasite or virus in culture", "conditions": "Mycolicibacterium smegmatis, ATCC607", "outline": "as §2"}, "ATCC 29212": {"test_system": "ATCC 29212", "assay": "microbe, parasite or virus in culture", "conditions": "Enterococcus", "outline": "as §2"}, "[8]": {"test_system": "Staphylococcus aureus ATCC 29213", "conditions": "reported for a teixobactin analogue; cited from earlier work"}}, "note": "Bridge positions count the residues as written; N and C are the ends. Square brackets hold non-standard residues; d marks the D form. Peptide text beside a SMILES is read from it. dNMeF = CN[C@H](Cc1ccccc1)C(=O)O"}
{"molecule": "CC[C@@H](C)[C@@H](NC(=O)[C@@H](CCCNC(=N)N)NC(=O)[C@H](CCCNC(=N)N)NC(=O)[C@@H](NC(=O)[C@@H](Cc1ccccc1)NC)[C@@H](C)CC)C(=O)N[C@H](C(=O)N[C@@H](CO)C(=O)N[C@H]1C(=O)N[C@@H](CCCNC(=N)N)C(=O)N[C@@H](CC(C)C)C(=O)N[C@@H]([C@@H](C)CC)C(=O)O[C@H]1C)[C@@H](C)CC", "note": "[Compound 31, Arg3-D-Arg4-Arg9-Leu10-teixobactin] (H-[dNMeF]IR[dR][dI]IS[dT]RLI; ester 8-C)", "values": [{"measurement": "MIC", "setting": "VRE 1002", "value": 8, "unit": "µg/mL"}, {"measurement": "MIC", "setting": "VRE 1001", "value": 2, "unit": "µg/mL"}, {"measurement": "MIC", "setting": "VRE 1004", "value": 4, "unit": "µg/mL"}, {"measurement": "MIC", "setting": "VRE 1008", "value": 8, "unit": "µg/mL"}, {"measurement": "MIC", "setting": "MRSA 1003", "value": 2, "unit": "µg/mL"}, {"measurement": "MIC", "setting": "[1]", "value": "<0.0625", "unit": "µg/mL"}, {"measurement": "MIC", "setting": "[2]", "value": "<0.0625", "unit": "µg/mL"}, {"measurement": "MIC", "setting": "[3]", "value": 1, "unit": "µg/mL"}, {"measurement": "MIC", "setting": "[4]", "value": "<0.0625", "unit": "µg/mL"}, {"measurement": "MIC", "setting": "SE12228", "value": "<0.0625", "unit": "µg/mL"}, {"measurement": "MIC", "setting": "[5]", "value": 0.25, "unit": "µg/mL"}, {"measurement": "MIC", "setting": "[6]", "value": "<0.0625", "unit": "µg/mL"}, {"measurement": "MIC", "setting": "SA4299", "value": 1, "unit": "µg/mL"}, {"measurement": "MIC in Enterococcus", "setting": "Enterococcus", "value": "2 to 8", "unit": "µg/mL"}, {"measurement": "MIC against MRSA ATCC 33591", "setting": "MRSA ATCC 33591", "value": 1, "unit": "µg/mL"}, {"measurement": "MIC", "setting": "MRSA DR 42412 (sputum); DR 42412 (sputum)", "value": 2, "unit": "µg/mL"}, {"measurement": "MIC", "setting": "MRSA DM21455 (eye); DM21455 (eye)", "value": 2, "unit": "µg/mL"}, {"measurement": "MIC", "setting": "MRSA ATCC 700699; ATCC 700699", "value": 2, "unit": "µg/mL"}, {"measurement": "MIC against Staphylococcus aureus ATCC 29213", "setting": "[7]", "value": 1, "unit": "µg/mL"}, {"measurement": "MIC", "setting": "VRE ATCC 29212", "value": 4, "unit": "µg/mL"}, {"measurement": "MIC", "setting": "VRE ATCC 700802; ATCC 700802", "value": 4, "unit": "µg/mL"}]}
{"molecule": "CN[C@H](CC(C)C)C(=O)N[C@H]1C(=O)N[C@@H](CC(N)=O)C(=O)N[C@H]2C(=O)N[C@H]3C(=O)N[C@H](C(=O)N[C@H](C(=O)O)c4cc(O)cc(O)c4-c4cc3ccc4O)[C@H](O)c3ccc(c(Cl)c3)Oc3cc2cc(c3O[C@@H]2O[C@H](CO)[C@@H](O)[C@H](O)[C@H]2O[C@H]2C[C@](C)(N)[C@H](O)[C@H](C)O2)Oc2ccc(cc2Cl)[C@H]1O", "note": "[Vancomycin, reference compound]", "values": [{"measurement": "MIC", "setting": "MRSA DR 42412 (sputum); Staphylococcus aureus, MRSA", "value": 2, "unit": "µg/mL"}, {"measurement": "MIC", "setting": "MRSA DM21455 (eye); Staphylococcus aureus, MRSA", "value": 2, "unit": "µg/mL"}, {"measurement": "MIC", "setting": "MRSA ATCC 700699; Staphylococcus aureus", "value": 2, "unit": "µg/mL"}, {"measurement": "MIC", "setting": "[7]; Staphylococcus aureus, ATCC29213", "value": 4, "unit": "µg/mL"}, {"measurement": "MIC", "setting": "M. smegmatis ATCC 607", "value": "> 64", "unit": "µg/mL"}, {"measurement": "MIC", "setting": "ATCC 29212", "value": "> 4", "unit": "µg/mL"}, {"measurement": "MIC", "setting": "VRE ATCC 700802; Enterococcus", "value": "> 4", "unit": "µg/mL"}]}
{"molecule": "Lys3-D-Lys4-Lys10-teixobactin", "values": [{"measurement": "reported MIC against Staphylococcus aureus ATCC 29213", "setting": "[8]", "value": 8, "unit": "µg/mL"}]}
